The subject of this test is Escherichia coli strain 1075. The test can be described thus: Protecting effect in experimental mice infections (E. coli strain 1075). The class given is in vivo. The settings on record: sc, 120 h, female albino mice 8 g-24 g, infected intraperitoneally with E. coli strain 1075, treated subcutaneously, survival on 5th day after infection, highest dosage tested usually 300 mg/kg. Here is the method:
Protecting Effect in Experimental Mice Infections:
For a reference's sake, with regard to antimicrobial activity of the typical compound which falls within the category of the compounds of the formula (I) of the present invention, there are illustrated in vivo tests in which active ingredient are the following compounds.
The test compound against in vivo against the species Escherichia coli was tested using female albino mice weighing 8 g-24 g.
The mice were infected by intraperitoneal route with standardized suitable diluted bacterial suspensions of E. coli strain 1075 and then treated subcutaneously with the test compound.
The ED50 (mg/kg) was determined from the numbers of mice surviving on the 5th day after infection. The highest dosage tested was usually 300 mg/kg.

In the case of `C=C1CCOC2(C(O)C3(C)COC(C)(C)O3)NC(=O)C1(O)NC2=O` (centres unmarked) [Compound 1, 2',3'-O,O-isopropylidenebicyclomycin], the 50% effective dose (ED50) (in general, the dose that gives a 50% effect, or the effect in half of the subjects) was found to be 65 mg/kg. The value for `CC(O)(CO)C(O)C12NC(=O)C(O)(NC1=O)C(Br)(CBr)CCO2` (centres unmarked) [Compound 2, 5,11-dibromo-5,11-dihydrobicyclomycin] was 60 mg/kg.

Values taken from patent US4215043A, “Bicyclomycin derivatives” (Fujisawa Pharmaceutical Co., Ltd., priority 1975, dated 1980).
